Reference: patent US20040138826A1, “Experimental design and data analytical methods for detecting and characterizing interactions and interaction thresholds on fixed ratio rays of polychemical mixtures and subsets thereof” (priority 2002, published 2004)
Several values for one entry are separate records, joined by “and”; a condition that tells them apart may be missing. Equal values may be shown once. Entries after “also recorded” stand apart in the source; their conditions may differ. Read-outs that look alike come from different tables or passages of the source.

How the values were obtained:
healthy adult rats = settings: for Threshold Estimate: dose threshold for motor activity, threshold additivity model, SAR analysis; for Threshold Estimate / Mean Motor Activity Response: rats; for Mean Motor Activity Response: single chemical
Source text: To motivate the use of these fixed-ratio mixture ray designs consider a study which examines exposure to environmentally relevant pesticides. The OP pesticides chosen for study, based on usage patterns (i.e. pesticides used on same or similar crops) and market share (i.e. highest volume pesticides), were acephate, diazinon, chlorpyrifos, dimethoate, and malathion. Motor activity, a count of the number of passes made across a central area, was used to assess toxicity in healthy adult rats. A full five-pesticide fixed-ratio ray, given by (0.040:0.002:0.031:0.102:0.825) for (acephate:diazinon:chlorpyrifos:dimethoate:malathion), was chosen based on relative dietary exposure estimates of each chemical as projected by the U.S. EPA Dietary Exposure Evaluation Model (DEEM).
Single chemical data were collected approximately 18 months prior to the data along the full fixed-ration ray.
Fixed-ratio ray designs were chosen to study interactions among combinations of multiple pesticides. The pesticides chosen for these studies, based on usage patterns (i.e., pesticides used on the same or similar crops) and market share (i.e., highest volume pesticides), were acephate, diazinon, chlorpyrifos, dimethoate, and malathion. Motor activity, a count of the number of passes made across a central area, was chosen to assess the toxicity of these pesticides in healthy adult rats. The fixed-ratio ray under study was chosen based on the relative dietary exposure estimates of each chemical as projected by the U.S. EPA Dietary Exposure Evaluation Model (DEEM) and is given by (0.040:0.002:0.031:0.102:0.825) for acephate, diazinon, chlorpyrifos, dimethoate, and malathion respectively.
The five-pesticide study described in the introduction is used to illustrate the sample size and power methods developed in Section 3. Due to the high potential of aggregate exposure to OP pesticides, researchers were initially interested in testing the hypothesis of additivity, given in (5), along the full five-pesticide fixed-ratio ray, given by (0.040:0.002:0.031:0.102:0.825) for ([…]), that represents relative dietary exposure estimates. Single chemical data were collected and used to estimate an additivity model along the ray (analysis not shown). Since, the motor activity response is a count variable it was assumed that V(m)=m and the log link function (McCullagh and Nelder, 1989) was used to fit the generalized linear additivity model described in Section 2. […] Eighty-six animals were considered. Fourteen animals were evaluated in the control group. Twelve animals each were evaluated at 10, 55, 100, 200, 300, and 450 mg/kg. Summary statistics for the single chemical and mixture data are provided in the appendix.
The five-pesticide study described in the introduction is used to illustrate the design methodology developed in the following sections. Due to the high potential for aggregate exposure to OP pesticides, researchers were initially interested in testing the hypothesis of additivity, given in (4), along the full five-pesticide fixed-ratio ray, given by (0.040:0.002:0.031:0.102:0.825) for (acephate:diazinon:chlorpyrifos:dimethoate:malathion). Since motor activity response is a count variable, it was assumed that V(μ)=μ and the log link function (McCullagh and Nelder, 1989) was used to fit the generalized linear additivity model given in (1). […] Eighty-six animals were considered. Fourteen animals were evaluated in the control group. Twelve animals each were evaluated at 10, 55, 100, 200, 300, and 450 mg/kg.

rats = settings: for effect when given alone on gait abnormality: single chemical data, rats
Source text: The endpoint of interest is neurotoxicity in rats as measured by a gait score dichotomized to indicate presence or absence of a gait abnormality (i.e., incoordination, loss of balance, etc.). The fixed-ratio ray under study was chosen based on the relative dietary exposure estimates of each chemical as projected by the U.S. EPA Dietary Exposure Evaluation Model (DEEM) and is given by (0.040:0.002:0.031:0.825:0.102) for ACE, DIA, CPF, MAL, DIM, respectively. […] (Note: Such a strategy can be extended for identifying the impact of the unidentified fraction in a complex mixture.)
The biological endpoint of interest is an indicator of neurotoxicity based on evidence of the presence or absence of a gait abnormality (Moser, 1995). In order to appropriately constrain the probability of a response to be between 0 and 1, a logit link function was used, i.e., g(μ)=log(μ/(1−μ)). It was assumed throughout that the variance changes as a binomial random variable such that Var(Y)=τμ(1−μ) (e.g., McCullagh and Nelder, 1989).
The resulting mixture experiment consisted of a vehicle control (n=14), ‘positive controls’ for ACE alone (6 and 30 mg/kg; n=6, 14, respectively), CPF alone (10, 20, 30 mg/kg; n=6, 8, 6, respectively), DIAZ alone (50 and 125 mg/kg; n=6, 14, respectively), MAL alone (350 mg/kg; n=14), DIM alone (10, 25, 50 mg/kg; n=6, 8, 6, respectively), and six total dose mixture concentrations (10, 55, 100, 200, 300 and 450 mg/kg; n=12 rats per dose group for a total of 72 rats exposed to a mixture of the chemicals) at a fixed mixing ratio ray of (0.040:0.002:0.031:0.825:0.102) for (ACE:DIA:CPF:MAL:DIM). Similarly, the design for a second fixed-ratio ray was based on a reduced number of the pesticides (omitting MAL) with the remaining pesticides at the same relative proportions as in the ‘full’ mixture study. The experiment consisted of a vehicle control (n=8), positive controls (n=8 per group) for ACE (30 mg/kg), CPF (20 mg/kg), DIA (125 mg/kg), and DIM (25 mg/kg), and six total dose mixture concentrations (1.75, 9.6, 17.5, 35, 52.5, and 78.8 mg/kg; n=12 rats per dose group) at a fixed mixing ratio ray of (0.229:0.011:0.177:0.583) for (ACE:DIA:CPF:DIM). Casey et al (2003a,b) describe the motor activity data in the mixture of these five pesticides.

Row | SMILES | Threshold Estimate (healthy adult rats) [mg/kg] | Mean Motor Activity Response (healthy adult rats; dose 1 mg/kg) | Mean Motor Activity Response (healthy adult rats; dose 2 mg/kg) | Mean Motor Activity Response (healthy adult rats; dose 5 mg/kg) | Mean Motor Activity Response (healthy adult rats; dose 10 mg/kg) | Mean Motor Activity Response (healthy adult rats; dose 20 mg/kg) | Mean Motor Activity Response (healthy adult rats; dose 25 mg/kg) | Mean Motor Activity Response (healthy adult rats; dose 30 mg/kg) | Mean Motor Activity Response (healthy adult rats; dose 50 mg/kg) | effect when given alone on gait abnormality (rats) | Mean Motor Activity Response (healthy adult rats; dose 75 mg/kg) | Mean Motor Activity Response (healthy adult rats; dose 125 mg/kg) | Mean Motor Activity Response (healthy adult rats; dose 150 mg/kg) | Mean Motor Activity Response (healthy adult rats; dose 250 mg/kg) | effect of malathion on the mixture, motor activity (healthy adult rats; SAR method, full vs reduced ray, p-value 0.068) | Mean Motor Activity Response (healthy adult rats; dose 100 mg/kg) | Mean Motor Activity Response (healthy adult rats; dose 500 mg/kg) | effect of MAL on the mixture, gait abnormality (rats; adjusted comparison of full and reduced rays, listed as MAL) | effect when given alone on gait abnormality (rats; listed as MAL)
1 | CCOP(=S)(OCC)Oc1nc(Cl)c(Cl)cc1Cl [Chlorpyrifos, chlorpyrifos] | 4.69 | 213.13 | 192.75 | 213.37 | 178.31 and 172.13 | 157.13 | 162.00 | 80.13 | 49.44 and 56.38 | significant effect on a gait abnormality | – | – | – | – | – | – | – | – | –
2 | CCOP(=S)(OCC)Oc1cc(C)nc(C(C)C)n1 [Diazinon, diazinon] | 25.0 | – | – | 190.88 | – | – | 215.56 | – | 183.13 | significant effect on a gait abnormality | 165.69 | 152.00 | 76.5 | 61.25 | – | – | – | – | –
3 | CNC(=O)CSP(=S)(OC)OC [Dimethoate, dimethoate] | 8.72 | – | – | 188.25 | 188.63 | – | 107.75 | – | 103.75 | significant effect on a gait abnormality | 101.50 | – | – | – | – | – | – | – | –
4 | CCOC(=O)CC(SP(=S)(OC)OC)C(=O)OCC (stereo not shown) [Malathion, malathion] | – | – | – | – | – | – | – | – | – | – | – | – | – | – | marginal evidence that malathion has an effect on the mixture | 201.5 | 203.75 | significantly (p=0.016) changes the shape of the dose response curve in the full ray; also recorded: interacts with at least some or all of the other four pesticides; also recorded: interacts with the other pesticides | not dose responsive
